These results are taken from publication PMC8780828 (Viruses, 2021).

Data set [1] deals with pseudovirus NL4-3ΔEnv-NanoLuc/SARS-CoV-2. Kind of data set: organism not typed. The settings on record: 293T/ACE2. In kind it is cell-based.
The test system is the same in data set [2]. In words: organism not typed. In kind it is cell-based. The settings on record: HT-1080; n=3.
For data set [3] the test system is unchanged. Kind of data set: organism not typed. In kind it is cell-based. The settings on record: A549-ACE2; n=3.
In data set [4] the test system is pseudovirus NL4-3ΔEnv-NanoLuc/SARS-CoV. Kind of data set: microbe, parasite or virus in culture. In kind it is cell-based. The settings on record: Severe acute respiratory syndrome coronavirus, 293T/ACE2; n=3.
Data set [5] shares this test system. In words: microbe, parasite or virus in culture. In kind it is cell-based. The settings on record: Severe acute respiratory syndrome coronavirus, HT-1080; n=3; read-out: IC50.
Data set [6] shares this test system. Kind of data set: microbe, parasite or virus in culture. The note with it: Severe acute respiratory syndrome coronavirus, A549-ACE2; n=3; read-out: IC50. In kind it is cell-based.
The test system of data set [7] is pseudovirus NL4-3ΔEnv-NanoLuc/MERS-CoV. Kind of data set: microbe, parasite or virus in culture. In kind it is cell-based. The settings on record: Middle East respiratory syndrome-related coronavirus, Huh-7; n=3; read-out: IC50.
Data set [8] has the same test system. In words: microbe, parasite or virus in culture. Format: cell-based. The settings on record: Middle East respiratory syndrome-related coronavirus, MRC5; n=3; read-out: IC50.
For data set [9], the system named is control pseudovirus NL4-3.Luc.R-E-/A-MLV. In words: Control pseudovirus A-MLV assay in 293T/ACE2 cells. In kind it is cell-based, amphotropic murine leukemia virus (A-MLV). The note with it: NL43, 293T/ACE2.
Data set [10] deals with NL4-3ΔEnv-NanoLuc/SARS-CoV-2. In words: organism not typed. The settings on record: for IC50: read-out: IC50 (range over the three cell lines). In kind it is cell-based.
Data set [11] concerns pseudovirus NL4-3ΔEnv-NanoLuc/SARS-CoV-2. In words: SARS-CoV-2 pseudovirus assay with pre-treated 293T/ACE2 cells. The note with it: 293T/ACE2 cells pre-treated with compound 30 min before infection. In kind it is cell-based.
Data set [12] concerns SARS-CoV-2 (US_WA-1/2020). In kind it is cell-based.
Another data set relates to MERS-CoV pseudovirus. Kind of data set: microbe, parasite or virus in culture. Format: cell-based.
A further data set addresses β-lactamase. In kind it is biochemical.
A further data set deals with Trypsin. In kind it is biochemical.
Data set [13] concerns the target malate dehydrogenase (MDH). In kind it is biochemical.
Data set [14] can be described thus: in vitro. The note with it: human.
Data set [15] in a line: in vitro. The settings on record: human. This is another data set of the same source.
Data set [16] can be described thus: in vitro. The note with it: both, human, microsomes, pH 7.4.

SMILES strings stand for the structures. “Also recorded” adds a separate entry of the source. Like-named read-outs stand apart in the source and are kept apart here.

`Cc1c(C(=O)O)cncc1-c1ccc(/C=C2\SC(=S)N(CCc3ccccc3)C2=O)o1` [NBCoV9]: the IC50 (usually the concentration that inhibits the measured activity by half) amounted to 342 ± 46 nM in data set [1]; 365 ± 73 nM in data set [2]; 596 ± 42 nM in data set [3]; 217 ± 22 nM in [4]; 246 ± 10 nM in [5]; 350 ± 15 nM in data set [6]. Also, the IC50 was 214 ± 23 nM in data set [7]; 232 ± 17 nM in data set [8]; 1630 ± 118 nM in data set [9]; greater than 2000 nM in [11]; roughly 200 nM in the data set on MERS-CoV pseudovirus (Middle East respiratory syndrome-related coronavirus). Moreover, the “IC100 (range of IC100 values detected in the three cell lines)” value in data set [10] was in the range of 2 to 3 µM. For the same compound, in data set [12], the IC100 is on record as greater than 10 µM.
In the case of `Cc1c(C(=O)O)cccc1-c1ccc(/C=C2\SC(=S)N(CCc3ccccc3)C2=O)o1` [NBCoV5], the IC50 in data set [1] was 1200 ± 240 nM; in data set [2] it was 1050 ± 252 nM; in data set [3], greater than 2000 nM; in [4], 1850 ± 179 nM; in data set [5] it was 1760 ± 330 nM; in data set [6], greater than 2000 nM. Besides, the IC50 (in [7]; in data set [8]; in data set [9]; in data set [11]; against β-lactamase; in the data set with Trypsin) was greater than 2000 nM throughout. Besides, in data set [13], the IC50 was greater than 2000 nM. In addition, the “IC100 (range of IC100 values detected in the three cell lines)” value in [10] is listed as greater than 2 µM. Besides, the IC100 in [12] is reported as greater than 10 µM. In addition, the MERS-CoV inhibitory activity result in the data set with MERS-CoV pseudovirus is given as “no MERS-CoV inhibitory activity”.
Consider `O=C(O)c1cccc(-c2ccc(/C=C3\SC(=S)N(CCc4ccccc4)C3=O)o2)c1F` [NBCoV7], for which the IC50 turned out to be 298 ± 60 nM in data set [1]; 290 ± 57 nM in [2]; 416 ± 25 nM in data set [3]; 111 ± 1.7 nM in data set [4]; 52 ± 8.9 nM in data set [5]; 271 ± 76 nM in data set [6]. Moreover, the IC50 in data set [7] was 933 ± 153 nM; in data set [8], 927 ± 63.5 nM; in [9], greater than 2000 nM; in [11], greater than 2000 nM. For the same compound, in data set [10], the “IC100 (range of IC100 values detected in the three cell lines)” value is 1 to 3 µM. Moreover, the IC100 in data set [12] is greater than 10 µM.
Turning to `O=C1C(=Cc2ccc(-c3ccc(Cl)cc3)o2)SC(=S)N1CCc1ccccc1` [NBCoV15, 5-((5-(4-chlorophenyl)furan-2-yl)methylene)-3-phenethyl-2-thioxothiazolidin-4-one], the IC50 in data set [1] and in [2] was greater than 2000 nM throughout. Further, the “antiviral activity against SARS-CoV-2 pseudovirus” value (“antiviral activity” for short) in data set [10] is given as “virtually no inhibition; also recorded: no antiviral activity; also recorded: no antiviral potency”.
As for `CCc1ccc(-c2ccc(/C=C3\SC(=S)N(CCc4ccccc4)C3=O)o2)cc1C(=O)O` [NBCoV6], the IC50 in data set [1] came out at 185 ± 5.8 nM; in [2], 245 ± 5 nM; in data set [3], 613 ± 72 nM; in [4] it was 175 ± 7 nM; in [5] it was 133 ± 9.5 nM; in data set [6] it was 867 ± 62 nM. Also, the IC50 in data set [7] is 569 ± 31 nM; in data set [8] it was 945 ± 77 nM; in data set [9], greater than 2000 nM; in data set [11], greater than 2000 nM. Further, the “IC100 (range of IC100 values detected in the three cell lines)” value in data set [10] is 1 to 3 µM. In addition, the IC100 in data set [12] is listed as greater than 10 µM.
Turning to `Cc1ccc(-c2ccc(/C=C3\SC(=S)N(CCc4ccccc4)C3=O)o2)cc1C(=O)O` [NBCoV4], the IC50 in data set [1] was 26 ± 1 nM; in [2] it was 47.7 ± 16 nM; in data set [3], 73 ± 4.1 nM; in data set [4], 80 ± 2 nM; in data set [5], 54 ± 3.5 nM; in data set [6], 100 ± 13 nM. In addition, the IC50 in data set [7] was 131 ± 6 nM; in [8], 80 ± 18 nM; in data set [9], 1620 ± 115 nM; in [10], 26 to 73 nM; in data set [11], greater than 2000 nM; on β-lactamase, greater than 2000 nM. Also, the 50% inhibitory concentration (IC50) (with Trypsin; in data set [13]) was greater than 2000 nM throughout. Further, the “IC100 (range of IC100 values detected in the three cell lines)” value in [10] was in the range of 0.3 to 1 µM. The IC100 in data set [12] is greater than 10 µM.
Consider `C#CCN1C(=O)/C(=C/c2ccc(-c3ccc(Cl)c(C(=O)O)c3)o2)SC1=S` [NBCoV28], for which the IC50 in data set [1] and in data set [2] was greater than 2000 nM in each case. Also, the “antiviral activity” value in data set [10] is given as “no antiviral activity; also recorded: did not show any inhibitory activities”. For the same compound, the CC50 is greater than 100000 nM in the data set “in vitro [14]” and 92000 ± 3000 nM in “in vitro [15]”.
`O=C1NC(=S)S/C1=C\c1ccc(-c2ccc(C(=O)O)cc2)o1` [NBCoV34]: the IC50 (in data set [1]; in data set [2]; at β-lactamase; in the data set with Trypsin; in [13]) was greater than 2000 nM each time. For the same compound, the “antiviral activity” value in [10] was “no antiviral activity; also recorded: no inhibitory activity”. Moreover, the CC50 was 83000 ± 4000 nM in “in vitro [14]” and roughly 100000 nM in “in vitro [15]”.
As to `O=C(O)c1cc(-c2ccc(/C=C3\SC(=S)N(CCc4ccccc4)C3=O)o2)ccc1F` [NBCoV3], the IC50 is 60.1 ± 8.5 nM in data set [1]; 64 ± 18 nM in data set [2]; 120 ± 5 nM in data set [3]; 17.8 ± 4 nM in data set [4]; 25.7 ± 0.6 nM in data set [5]; 157 ± 12.5 nM in [6]. For the same compound, the IC50 in data set [7] is 158 ± 14 nM; in data set [8], 123 ± 17 nM; in data set [9] it was 960 ± 57 nM; in data set [10] it was 60.1 to 120 nM; in data set [11], greater than 2000 nM; on β-lactamase, greater than 2000 nM. Besides, the IC50 (in the data set on Trypsin; in data set [13]) was greater than 2000 nM in each case. Besides, in [10], the “IC100 (range of IC100 values detected in the three cell lines)” value lay in the range of 0.5 to 1.2 µM. For the same compound, in [12], the IC100 was greater than 10 µM.
Turning to `C[C@]12CC[C@H]3[C@@H](CCC4=CC(=O)CC[C@@]43C)[C@@H]1CC[C@@H]2O` [Testosterone, reference compound], in the data set “in vitro [16]”, the half-life (commonly how long it takes for the measured level to halve) worked out at 11.3 min and the intrinsic clearance (microsomal CLint) (usually the capacity of the preparation to metabolise the compound, expressed as a volume cleared per time) came to 122 µL/min/mg.
Regarding `O=C(O)c1cc(-c2ccc(/C=C3\SC(=S)N(CCc4ccccc4)C3=O)o2)ccc1Br` [NBCoV8], the IC50 in [1] was determined as 65.8 ± 6.2 nM; in data set [2], 94 ± 9 nM; in data set [3], 254 ± 27 nM; in data set [4] it was 128 ± 6.7 nM; in data set [5], 225 ± 26 nM; in [6] it was 700 ± 70 nM. Besides, the IC50 is 509 ± 43 nM in [7], 559 ± 66 nM in data set [8], greater than 2000 nM in data set [9] and greater than 2000 nM in [11]. The “IC100 (range of IC100 values detected in the three cell lines)” value in data set [10] fell in the range of 1 to 2.5 µM. In data set [12], this compound showed an IC100 greater than 10 µM.
Take `O=C1NC(=S)S/C1=C\c1ccc(-c2ccc(Cl)c(C(=O)O)c2)o1` [NBCoV17]: the IC50 in data set [1] and in [2] was greater than 2000 nM in each case. Besides, the “antiviral activity” value in data set [10] is on record as “no antiviral activity; also recorded: did not show any inhibitory activities”. The CC50 in the data set “in vitro [14]” and in “in vitro [15]” was greater than 100000 nM in each case.
